Measurements taken from US20230000892A1, “Solution, Lotion, Gel, and Cream for Use to Prevent Razor Bumps” (priority 2021, published 2023).

Tested on: razor bumps
Test: proof of concept use of acne gels, creams, suspension and lotions immediately after shaving to prevent razor bumps
Type: in vivo, human
Conditions: concentration down to at least 0.75% within the gel

clindamycin phosphate
adequacy of lower concentration for preventing razor bumps: sufficiently adequate
